Source: paper PMC8961646, “Fibroblast Activation Protein Specific Optical Imaging in Non-Small Cell Lung Cancer” (Frontiers in Oncology, 2022)
Non-standard residues stand in square brackets, D forms with d. Residues, ends and D or L forms follow the SMILES beside them. *: point of attachment. 5FAM = O=C1OC2(c3ccc(O)cc3Oc3cc(O)ccc32)c2ccc(C(=O)*)cc21; MethylRed = CN(C)c1ccc(/N=N/c2ccccc2C(=O)*)cc1; AEEA = NCCOCCOCC(=O)O

How the values were obtained:
[1] = target: T1, MMP 2 (Homo sapiens, UniProt P08253); assay: Probe assessment against recombinant MMP panel; format: biochemical; settings: recombinant enzyme, n=2 run in triplicate
T1 sequence (P08253 110-660): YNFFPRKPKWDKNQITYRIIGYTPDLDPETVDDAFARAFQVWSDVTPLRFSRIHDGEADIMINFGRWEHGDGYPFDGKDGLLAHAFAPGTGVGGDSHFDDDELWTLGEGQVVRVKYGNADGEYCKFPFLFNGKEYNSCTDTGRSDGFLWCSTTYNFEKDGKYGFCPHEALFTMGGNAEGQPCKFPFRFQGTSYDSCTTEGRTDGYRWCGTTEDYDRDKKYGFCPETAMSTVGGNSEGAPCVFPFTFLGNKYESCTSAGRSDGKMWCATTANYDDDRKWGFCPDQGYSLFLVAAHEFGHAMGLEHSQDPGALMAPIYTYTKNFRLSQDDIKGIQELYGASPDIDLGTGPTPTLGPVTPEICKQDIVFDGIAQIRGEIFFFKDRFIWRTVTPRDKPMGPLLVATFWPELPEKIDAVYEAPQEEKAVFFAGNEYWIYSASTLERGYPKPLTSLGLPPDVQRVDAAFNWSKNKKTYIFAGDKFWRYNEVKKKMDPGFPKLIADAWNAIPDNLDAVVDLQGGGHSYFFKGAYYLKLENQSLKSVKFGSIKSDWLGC

[2] = target: rhDPPIV (Homo sapiens, UniProt P27487); assay: Probe cleavage by recombinant human DPP-IV (exopeptidase activity); settings: probe 5 µM, rhDPPIV 0.1 µg/ml, TRIS buffer pH 7.5, read 480/530 nm, n=3 run in triplicate
rhDPPIV, sequence (P27487 29-766 limits assumed): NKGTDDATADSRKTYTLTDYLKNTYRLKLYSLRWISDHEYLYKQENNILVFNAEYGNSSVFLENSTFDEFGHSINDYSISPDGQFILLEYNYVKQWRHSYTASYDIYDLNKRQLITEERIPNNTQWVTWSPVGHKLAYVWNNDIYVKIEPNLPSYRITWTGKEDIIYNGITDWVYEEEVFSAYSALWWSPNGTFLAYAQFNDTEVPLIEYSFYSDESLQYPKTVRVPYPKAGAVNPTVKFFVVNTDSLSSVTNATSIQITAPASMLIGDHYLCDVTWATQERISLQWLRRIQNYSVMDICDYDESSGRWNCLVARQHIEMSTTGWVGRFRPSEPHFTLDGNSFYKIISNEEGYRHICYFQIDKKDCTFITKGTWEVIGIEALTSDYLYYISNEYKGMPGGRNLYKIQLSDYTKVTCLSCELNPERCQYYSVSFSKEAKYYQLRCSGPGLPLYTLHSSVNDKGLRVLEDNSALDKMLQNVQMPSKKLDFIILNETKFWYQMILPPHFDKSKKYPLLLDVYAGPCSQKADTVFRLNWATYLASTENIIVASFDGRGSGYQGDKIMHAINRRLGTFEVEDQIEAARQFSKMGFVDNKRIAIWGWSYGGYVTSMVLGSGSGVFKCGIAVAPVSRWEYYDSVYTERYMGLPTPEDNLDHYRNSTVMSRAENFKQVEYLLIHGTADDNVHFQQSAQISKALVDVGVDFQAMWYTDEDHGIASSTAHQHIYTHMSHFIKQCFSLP
Protocol: Recombinant human enzymes [rhFAP (R&D Systems), rhPREP (R&D Systems) and rhDPPIV (Biolegend)] were stored in stocks at -70°C and diluted as required to be used at final concentration of 0.1 µg/ml. Enzymes were aliquoted upon receipt from the supplier and new stocks made from a fresh aliquot as required.
Assays were undertaken in triplicate in blackened 384 well plates on ice prior to spectral reads. […] All wells contained a final volume of 20 µl to include buffers, inhibitors (if used), substrates and recombinant human enzymes (at a concentration of 0.1 µg/ml unless otherwise stated). […] Plates were sealed with an optical plate sealer (Biolegend) and were read in a preheated spectrophotometer (Synergy Biotek) in monochromator-based mode at 380/460 nm for control substrates and 480/530 nm for synthesised FAP probes.

[3] = target: MMP 13 (Homo sapiens, UniProt P45452); assay: Probe assessment against recombinant MMP panel; format: biochemical; settings: recombinant enzyme, n=2 run in triplicate

CC(C)[C@H](NC(=O)[C@@H](N)CCCCNC(=O)c1ccccc1/N=N/c1ccc(N(C)C)cc1)C(=O)N[C@H](CO)C(=O)N1CCC[C@H]1C(=O)N[C@@H](CC(N)=O)C(=O)N[C@@H](CCC(N)=O)C(=O)NCC(=O)N[C@@H](CCCCNC(=O)c1ccc2c(c1)C(=O)OC21c2ccc(O)cc2Oc2cc(O)ccc21)C(=O)NCCOCCOCC(=O)N[C@H](CCCCN)C(=O)NCCOCCOCC(=O)N[C@H](CCCCN)C(=O)NCCOCCOCC(=O)N[C@H](CCCCN)C(N)=O [FAP3] (H-K(MethylRed)V[dS]PNQGK(5FAM)[AEEA][dK][AEEA][dK][AEEA][dK]-NH2)
Activity with MMP 2 [1]: no activity | Cleavage by DPP-IV (exopeptidase activity, fluorescence signal) [2]: no cleavage | Activity with MMP 13 [3]: no activity
